Reference: ChEMBL document CHEMBL1201862, “PubChem BioAssay data set” (2004)
Activity calls are given as the source filed them. Cut-off read from the data, not from the text of the source, for most assays here: actives have a measured EC50 and inactives only a lower limit.

Assays:
[1] = target: T1, Heat shock factor protein 1 (Mus musculus, UniProt P38532); assay: decrease of HSF1-responsive luciferase luminescence – cell-based, NIH3T3, dose retest, confirmation (AID 2382); assay type: functional;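 note: NIH3T3 fibroblasts with HSF1-driven luciferase reporter stressed by proteasome inhibitor MG132; luminescence from HSF1-driven luciferase expression after 8 hours of MG132 stress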
T1 sequence (P38532 whole entry): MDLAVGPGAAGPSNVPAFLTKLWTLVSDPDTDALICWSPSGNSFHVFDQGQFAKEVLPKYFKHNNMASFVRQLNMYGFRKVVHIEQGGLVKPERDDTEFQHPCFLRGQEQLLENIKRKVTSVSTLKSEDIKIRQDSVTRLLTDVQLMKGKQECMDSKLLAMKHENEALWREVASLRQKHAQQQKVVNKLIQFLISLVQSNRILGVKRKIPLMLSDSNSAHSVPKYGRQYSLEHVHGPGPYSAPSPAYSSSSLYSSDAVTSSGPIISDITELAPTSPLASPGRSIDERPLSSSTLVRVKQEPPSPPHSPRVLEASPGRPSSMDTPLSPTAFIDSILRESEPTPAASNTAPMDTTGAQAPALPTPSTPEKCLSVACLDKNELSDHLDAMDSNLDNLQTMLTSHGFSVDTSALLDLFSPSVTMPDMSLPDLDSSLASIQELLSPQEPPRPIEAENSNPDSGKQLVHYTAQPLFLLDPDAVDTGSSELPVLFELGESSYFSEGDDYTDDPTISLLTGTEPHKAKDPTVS

[2] = luciferase reporter signal suppression in cells – H4 neuroglioma cells, luminescence, dose response (AID 1990); assay type: functional, cell-based
[3] = alpha-synuclein stem-loop luciferase translation blockers – H4 neuroglioma cells, luminescence, confirmation (AID 1988); assay type: functional, cell-based
[4] = Luminescence Cell-Based Dose Response HTS to Identify Inhibitors of 5'UTR Stem-Loop Driven Prion Protein mRNA Translation in H4 Neuroglioblastoma Cells. [Related pubchem assays: 1827 (Project Summary), 1813 (Primary HTS)]; assay type: functional
Paired box protein Pax-8 = Paired box protein Pax-8 (Homo sapiens, UniProt Q06710); assay: PAX8 transcriptional activity inhibition in RMG-I – RMG-I cells, luciferase, cherry-pick, dose response (AID 687027); assay type: functional, cell-based;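 note: luciferase reporter driven by Pax8 target thyroperoxidase promoter measured by SteadyGlo luminescence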
Streptococcus = assay: GAS UMAA2166 growth inhibition – luminescence, BacTiterGlo, counter-screen for streptokinase expression inhibitor project, dose response (AID 1915); assay type: functional, organism-based;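 note: potency for reduction of bacterial viability or growth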
[5] = tested on: Streptococcus sp. 'group A'; assay: Streptococcus pyogenes SK(-)GAS viability under kanamycin – luminescence, BacTiterGlo, confirmation, counter-screen for streptokinase expression inhibitor project, dose response (AID 1900); assay type: functional, organism-based
[6] = target: T2, Carboxy-terminal domain RNA polymerase II polypeptide A small phosphatase 1 (Homo sapiens, UniProt Q9GZU7); assay: CTDSP1 inhibitors, concentration-response, biochemical, absorbance readout, ultra-high-throughput screen actives (AID 540297); assay type: functional
T2 sequence (Q9GZU7 whole entry): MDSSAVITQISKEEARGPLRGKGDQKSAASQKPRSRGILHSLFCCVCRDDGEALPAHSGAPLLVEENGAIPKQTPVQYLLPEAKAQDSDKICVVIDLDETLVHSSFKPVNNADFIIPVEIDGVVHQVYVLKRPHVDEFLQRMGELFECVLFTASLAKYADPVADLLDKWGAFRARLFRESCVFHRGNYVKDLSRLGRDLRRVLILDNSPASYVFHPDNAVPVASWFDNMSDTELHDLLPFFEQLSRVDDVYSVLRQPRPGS

[7] = NIH-3T3 fibroblast cytotoxicity, dose response, cytotoxicity control, cell-based, fluorescence, Alamar Blue, secondary assay (AID 2327); assay type: functional;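 note: NIH-3T3 mouse fibroblasts cultured with fluconazole at 8 µg/mL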
[8] = fluconazole-exposed Candida albicans growth modulators – fluorescence, retest, confirmation (AID 2467); assay type: functional, cell-based
[9] = target: T3, Polyadenylate-binding protein 1 (Homo sapiens, UniProt P11940); assay: MLLE binding blockers, Cy5 peptide tracer – biochemical, fluorescence polarization, Cy5-PAM2 peptide, secondary, miRNA deadenylation inhibitor project, dose response (AID 602260); assay type: functional; conditions: read-out: IC50_Mean
[10] = target: T3, Polyadenylate-binding protein 1; assay: MLLE domain peptide-binding blockers, IC50 – biochemical, fluorescence polarization, FITC-PAM2 peptide, dose response (AID 602259); assay type: functional; conditions: read-out: IC50_Mean
[11] = Luminescence Cell-Based Dose Retest to Confirm Inhibitors of Cancer Stem Cells. [Related pubchem assays (depositor defined):AID2717, AID2721]; assay type: functional; conditions: Homo sapiens
[12] = viability of uninfected HEp-2 cells – cell-based, HTS, cytotoxicity control for RSV inhibitor project, dose response (AID 2410); assay type: functional; conditions: human respiratory syncytial virus
[13] = NIH3T3 cell viability loss – ATP luminescence, mouse fibroblasts, counter-screen, dose response (AID 2010); assay type: functional, cell-based;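 note: cells exposed to compound for about 90 hours before reading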
[14] = Trypanosoma cruzi growth suppression in host cells – NIH3T3 host cells, beta-gal luminescence, confirmation (AID 2044); assay type: functional, cell-based;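 note: intracellular parasites grown in NIH/3T3 mouse fibroblasts as host cells; luminescent beta-galactosidase reporter signal from transgenic T. cruzi replicating inside host cells; inhibitors lower the luminescence signal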
[15] = viability of HCT116 lacking mutant beta-catenin – cell-based, human colon tumor, dose response (AID 1045); assay type: functional;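 note: HCT116 colon tumor cells with beta catenin knocked out; cells exposed to compound for 60 hours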
[16] = target: FAD-linked sulfhydryl oxidase ALR (Homo sapiens, UniProt P55789); assay: ALR-catalysed DTT oxidation blockers – biochemical, H2O2 detection, luminescence, cherry-pick, dose response (AID 493248)
Sequence of FAD-linked sulfhydryl oxidase ALR (P55789 whole entry): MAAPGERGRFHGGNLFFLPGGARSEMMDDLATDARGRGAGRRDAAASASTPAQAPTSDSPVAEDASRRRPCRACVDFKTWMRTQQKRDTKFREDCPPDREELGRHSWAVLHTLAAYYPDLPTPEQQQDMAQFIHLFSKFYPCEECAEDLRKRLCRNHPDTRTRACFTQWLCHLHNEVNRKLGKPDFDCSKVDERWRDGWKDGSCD

T3 sequence (P11940 whole entry, the tested form may be a part): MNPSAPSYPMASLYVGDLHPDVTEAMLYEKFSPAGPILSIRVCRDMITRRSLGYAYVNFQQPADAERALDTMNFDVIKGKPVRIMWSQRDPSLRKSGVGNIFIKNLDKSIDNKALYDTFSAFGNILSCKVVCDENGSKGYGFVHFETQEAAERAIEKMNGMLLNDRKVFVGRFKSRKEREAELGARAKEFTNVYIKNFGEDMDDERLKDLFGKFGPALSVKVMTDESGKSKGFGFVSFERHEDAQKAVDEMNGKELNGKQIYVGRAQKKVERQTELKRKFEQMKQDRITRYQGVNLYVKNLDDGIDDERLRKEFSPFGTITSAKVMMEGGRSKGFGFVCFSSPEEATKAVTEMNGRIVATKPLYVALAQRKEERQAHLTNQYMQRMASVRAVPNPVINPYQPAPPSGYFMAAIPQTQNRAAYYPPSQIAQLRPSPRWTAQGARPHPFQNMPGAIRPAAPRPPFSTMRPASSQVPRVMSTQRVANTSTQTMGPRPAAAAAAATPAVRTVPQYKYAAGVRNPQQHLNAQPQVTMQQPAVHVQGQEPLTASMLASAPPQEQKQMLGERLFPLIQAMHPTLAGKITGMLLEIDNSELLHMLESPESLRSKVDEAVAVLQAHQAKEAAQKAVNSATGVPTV
Sequence of Paired box protein Pax-8 (Q06710 whole entry): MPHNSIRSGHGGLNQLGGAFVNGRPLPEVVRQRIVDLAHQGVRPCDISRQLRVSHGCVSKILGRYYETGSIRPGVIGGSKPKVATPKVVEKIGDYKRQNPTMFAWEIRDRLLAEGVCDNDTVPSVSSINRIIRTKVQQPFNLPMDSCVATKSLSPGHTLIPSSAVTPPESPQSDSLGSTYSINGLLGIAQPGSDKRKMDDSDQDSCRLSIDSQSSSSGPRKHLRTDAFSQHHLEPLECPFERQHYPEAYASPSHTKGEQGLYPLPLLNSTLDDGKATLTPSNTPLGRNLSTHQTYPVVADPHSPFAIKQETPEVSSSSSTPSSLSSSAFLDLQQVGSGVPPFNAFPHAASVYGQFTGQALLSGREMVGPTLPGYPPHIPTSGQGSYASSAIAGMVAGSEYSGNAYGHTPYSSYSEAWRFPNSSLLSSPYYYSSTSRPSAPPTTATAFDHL

COc1cc(O)nc(SCC(=O)Nc2nc3c(s2)CCCC3)n1
EC50 [1]: > 195 µM (not active)

COc1ccccc1N1CCN(S(=O)(=O)CCNC(=O)c2ccc(Br)o2)CC1
EC50 [2]: > 120 µM (not active) | EC50 [3]: > 120 µM (not active) | EC50 [4]: > 120 µM (not active)

O=C(CCl)Nc1cc2[nH]c(O)nc2cc1Br
AC50 (Paired box protein Pax-8): 3.95 µM (active)

O=C(Nc1nnc(SCc2c(Cl)cccc2Cl)s1)C1CC(=O)N(c2ccc3c(c2)OCCO3)C1 (configuration not stated)
EC50 (Streptococcus): 31.8 µM (active) | EC50 [5]: 44.2 µM (active) | IC50 [6]: 4.6 µM (active)

CCOC(=O)CSC1=C(C#N)C(c2ccccc2C)C2=C(O)CCCC2=N1 (configuration not stated)
EC50 [1]: > 195 µM (not active)

O=c1oc2c(-c3ccc([N+](=O)[O-])cc3)cc(O)cc2s1
IC50 [6]: 6.91 µM (active)

CCN(c1ccccc1)S(=O)(=O)c1ccc(Cl)c(NC(=O)CN2C(=O)NC3(CCCC3)C2=O)c1
EC50 [7]: > 150 µM (inconclusive) | EC50 [8]: 4.42 µM (active)

COc1cc2c(cc1OC)C(c1ccccc1O)N(C1CC(=O)N(c3ccccc3)C1=O)CC2 (configuration not stated)
IC50 [9]: > 66 µM (inactive) | IC50 [10]: > 66 µM (inactive)

Cc1ccc(C)c2nc(O)c(CCNC(=O)C(C)(C)C)cc12
EC50 [1]: > 195 µM (not active)

O=C(Nc1cc(S(=O)(=O)Nc2ccc(Cl)cc2)ccc1N1CCCCC1)c1ccc(F)cc1Cl
AC50 [11]: 2.07 µM (active) | IC50 [9]: > 66 µM (inactive) | IC50 [10]: > 66 µM (inactive)

C=CCSC1=C(C#N)C(c2ccccc2OCC)C(C#N)C(=O)N1 (configuration not stated)
IC50 [9]: > 66 µM (inactive) | IC50 [10]: > 66 µM (inactive)

Cc1cccc(OCC(O)CN2CCN(S(=O)(=O)c3ccc(C)cc3C)CC2)c1 (configuration not stated)
EC50 [2]: > 120 µM (not active) | EC50 [3]: 15.9 µM (active) | EC50 [4]: > 120 µM (not active)

CC(=O)c1ccc(NC(=O)CCS(=O)(=O)c2ccc3c(c2)n(C)c(=O)c(=O)n3C)cc1
IC50 [6]: > 80 µM (inactive)

COCCN(Cc1cc2cc3c(cc2n2nnnc12)OCO3)C(=O)c1ccccc1F
EC50 [2]: > 120 µM (not active) | EC50 [3]: > 120 µM (not active) | EC50 [4]: > 120 µM (not active)

CN(c1ccccc1)S(=O)(=O)c1cccc(NC(=O)CN2CCc3ccccc3C2)c1
CC50 [12]: 22.4 µM (active)

Cc1c(NC(=S)NC(=O)CSc2ccc(Cl)cc2)cccc1C(=O)O
IC50 [9]: > 66 µM (inactive) | IC50 [10]: > 66 µM (inactive)

Oc1nc(SCCOc2cccc3ccccc23)nc2ccccc12
EC50 [2]: 15.4 µM (active) | EC50 [3]: > 120 µM (not active) | EC50 [4]: > 120 µM (not active)

O=C(O)c1cccc(-n2cccc2/C=C2\SC(=O)N(Cc3ccccc3F)C2=O)c1
IC50 [6]: 4.62 µM (active)

C=C(C)COc1ccc(-c2n[nH]cc2-c2ccc(OC)cc2)c(O)c1
AC50 [11]: 7.79 µM (active) | CC50 [12]: 14.8 µM (active)

Cc1nc(Sc2ccc(Cl)cc2)c(C#N)c(C)c1[N+](=O)[O-]
CC50 [12]: 13.2 µM (active)

Cc1c(C(=O)C(=O)N2c3ccc(F)cc3CCC2C)c2ccccc2n1C (configuration not stated)
EC50 [2]: 10.5 µM (active) | EC50 [3]: 5.47 µM (active) | EC50 [4]: 12.2 µM (active)

CC(C)(C)c1cc(C(=O)NNc2ccc(OC(F)(F)F)cc2)n(Cc2ccccc2)n1
EC50 [7]: > 160 µM (inactive) | EC50 [8]: 3.05 µM (active)

COc1ccc(C(=O)NC2(C(F)(F)F)N=C3SCCN3C2=O)cc1 (configuration not stated)
IC50 [9]: > 66 µM (inactive) | IC50 [10]: > 66 µM (inactive)

CCCN(CCC)S(=O)(=O)c1ccc(NC(=O)c2cc(C(=O)OC)cc([N+](=O)[O-])c2)cc1
EC50 [13]: > 60 µM (inconclusive) | EC50 [1]: > 195 µM (not active) | EC50 [14]: 0.323 µM (active)

CCOC(=O)COc1ccc(S(=O)(=O)N2CCN(c3ccccc3F)CC2)cc1
EC50 [7]: > 150 µM (inconclusive) | EC50 [8]: > 38 µM (not active)

Cc1ccccc1C(=O)NCCNc1ccc([N+](=O)[O-])cc1
EC50 [2]: > 120 µM (not active) | EC50 [3]: > 120 µM (not active) | EC50 [4]: > 120 µM (not active)

N#Cc1c(NC(=O)c2nc3ncccn3n2)sc2c1CCCCC2
EC50 [7]: > 150 µM (inactive) | EC50 [8]: 0.403 µM (active)

CC(=O)ON1C(C)(C)CC(OC(=O)c2ccccc2)CC1(C)C
EC50 [15]: 124 µM (active)

Cc1c(NC(=S)NC(=O)c2cccc3ccccc23)cccc1C(=O)O
IC50 [9]: > 66 µM (inactive) | IC50 [10]: > 66 µM (inactive)

CS(=O)(=O)N(CC(=O)NCCSC1CCCCC1)c1ccc2c(c1)OCO2
EC50 [1]: > 195 µM (not active)

CCOC(=O)C1=C(C)N(C)C(C)=C(C(=O)OCC)C1c1ccc(C(=O)OC)cc1
EC50 [2]: 35.5 µM (active) | EC50 [3]: 37.9 µM (active) | EC50 [4]: > 120 µM (not active)

COc1ccccc1NC(=O)CN1CCN(c2ccccc2OC)CC1
EC50 [7]: > 160 µM (inactive) | EC50 [8]: > 38 µM (not active)

CCC1=CC(c2ccccc2)n2ncnc2N1 (configuration not stated)
EC50 [1]: > 195 µM (not active)

O=C(Nc1cc(F)cc(F)c1)c1ccc(NCCCN2CCCCCC2)c([N+](=O)[O-])c1
EC50 [7]: 105 µM (active) | EC50 [8]: > 38 µM (not active)

COc1cc(/C=C/C(=O)NC(C)C2CC3CCC2C3)cc(OC)c1OC (configuration not stated)
EC50 [1]: > 195 µM (not active)

Cc1ccc(S(=O)(=O)CC(=O)Nc2nnc(C(C)(C)C)s2)cc1
IC50 [9]: > 66 µM (inactive) | IC50 [10]: > 66 µM (inactive)

CC1CCN(c2ccc(NC(=S)NC(=O)c3ccc(-c4cccc([N+](=O)[O-])c4)o3)cc2)CC1
IC50 [9]: > 66 µM (inactive) | IC50 [10]: > 66 µM (inactive)

O=[N+]([O-])c1cccc(CN2[C@@H](Cc3ccccc3)COCCS2(=O)=O)c1
EC50 [1]: > 195 µM (not active)

O=C(O)CC(SCC(=O)Nc1ccc(S(=O)(=O)N2CCCC2)cc1)C(=O)O (configuration not stated)
IC50 [9]: > 66 µM (inactive) | IC50 [10]: > 66 µM (inactive)

O=C(Nc1ccc2c(c1)CCCN2C(=O)c1cccs1)c1c(F)cccc1Cl
CC50 [12]: 24.1 µM (active)

COc1ccc(Nc2ccc(N3C(=O)CC(C)C3=O)cc2[N+](=O)[O-])cn1 (configuration not stated)
IC50 [9]: > 66 µM (inactive) | IC50 [10]: 48.4 µM (inactive)

Cc1nc(NS(=O)(=O)c2ccc(Br)cc2)c2c3c(sc2n1)CCC3
EC50 [7]: > 160 µM (inactive) | EC50 [8]: 1.93 µM (active)

Cc1cccc2cc(CN(CC3CCCO3)C(c3nnnn3Cc3ccco3)C(C)C)c(O)nc12 (configuration not stated)
CC50 [12]: 16.8 µM (active)

COc1ccc(S(=O)(=O)N2CCCCN3[C@H](C2)[C@@H](c2ccc(C#CC(C)C)cc2)[C@@H]3CO)cc1
AC50 (Paired box protein Pax-8): 6.14 µM (active)

CC(C)CC#Cc1ccc2c(c1)O[C@@H](CN(C)Cc1ccncc1)[C@H](C)CN([C@@H](C)CO)S2(=O)=O
AC50 (Paired box protein Pax-8): 5.97 µM (active)

C[C@@H]1CN([C@@H](C)CO)C(=O)c2cc(NS(=O)(=O)c3ccc(Cl)cc3)ccc2O[C@@H](C)CCCCO[C@H]1CN(C)Cc1ccc(C(F)(F)F)cc1
AC50 (Paired box protein Pax-8): 8.29 µM (active)

CN(C)c1ccc(/C=N/Nc2ccc(-n3ccnc3)nn2)cc1
EC50 [1]: > 195 µM (not active) | AC50 [16]: 3.85 µM (active)

CCOC(=O)C1CCCN(c2nc3ccccc3nc2C(C#N)C(=O)OCC)C1 (configuration not stated)
CC50 [12]: 33.7 µM (active)

C=CC[N+]1(C)CC[C@]23c4c5ccc(O)c4O[C@H]2C(=O)CC[C@@]3(O)[C@H]1C5 (some centres not stated) [NALOXONE METHIODIDE]
IC50 [6]: 9.73 µM (active)
